According to US12622974B2, “Siderophore-dihydrofolate reductase inhibitor conjugate and application thereof” (priority 2020, dated 2026):
In brackets after ≈: the same amount, converted by molar mass. *1 amine or outer side, *2 acyl side, *3 side chain or, on linkers, in order; H or OH if unused. Where a SMILES comes first, the peptide text is derived from it. [ ]: non-standard residue; d: D form. The star is where a group is joined. DAMPA = CN(Cc1cnc2nc(N)nc(N)c2n1)c1ccc(C(=O)*)cc1; Orn(N5-OH,N5-Ac) = CC(=O)N(O)CCC[C@H](N)C(=O)O; d(γGlu) = O=C(O)[C@@H](CCC(=O)[*:2])N[*:1]; Ethylenediamine = C(CN[*:2])N[*:1]

Key:
[1] = tested on: clinical Streptococcus pneumoniae; experiment: MIC determination on Streptococcus pneumoniae by the microdilution broth method; format: cell-based; conditions: MH broth II with horse blood and 2,2-bipyridine, 16-18 hours; for MIC against Streptococcus pneumoniae 180918016-S27: clinical strain 180918016-S27; for MIC against Streptococcus pneumoniae 180918017-S28: clinical strain 180918017-S28
Protocol: The minimum inhibitory concentration (MIC) determination was performed in accordance with the standards of the American Association for Clinical and Laboratory Standards (CLSIM07). The MIC determination on Streptococcus pneumoniae was carried out by the microdilution broth method as follows. First, the compound to be tested was dissolved in water to prepare a high-concentration original solution, and then the compound original solution was sequentially diluted by 2 folds, a total of 10 times, to prepare 11 samples of 10× working solution. Then the gradient dilutions of the compound were transferred to a 96-well round bottom plate, the first to eleventh wells contained 10 μL of the 11 samples of 10× working solution prepared above, respectively, and 10 μL of water was added to the twelfth well as a solvent control.

[2] = Cytotoxicity test, MTT colorimetric method, L02; format: cell-based; conditions: human
Protocol: (§1) The cytotoxicity test was carried out with the MTT colorimetric method. 5×10^3 cells in a logarithmic growth phase were inoculated in each well of a 96-well plate, and incubated overnight at 37° C. in an incubator (5% CO2). Then, different concentrations of compounds were added and the incubation further continued for 72 hours. Finally, 10 μL of MTT solution was added to each well and he incubation further continued for 4 hours. Then, the culture medium in each well was carefully aspirated. 100 μL of dimethyl sulfoxide was added to each well, and shaken at low speed for 10 minutes on a shaker to fully dissolve crystals. The absorbance of each well was measured at OD490 nm of the enzyme-linked immunometric meter. Three parallel measurements were designed for each group, in order to calculate the standard deviation. Cell survival rate=(compound-treated OD value−blank control OD value)/(normal control OD value−blank control OD value)*100%
(§2) The toxicity of each compound was tested by measuring the half inhibitory concentrations (IC50) with respect to human normal hepatocytes (L02), human umbilical vein endothelial cells (HUVEC) and human renal epithelial cells (293T), respectively.

[3] = Cytotoxicity test, MTT colorimetric method, HUVEC; format: cell-based; conditions: human
Protocol: as §1, §2

[4] = Cytotoxicity test, MTT colorimetric method, 293T; format: cell-based; conditions: human
Protocol: as §1, §2

Enterococcus = conditions: cited from earlier work
Streptococcus pneumoniae = conditions: background statement; cited from earlier work
[5] = tested on: human normal hepatocytes, human umbilical vein endothelial cells and human renal epithelial cells; experiment: Cytotoxicity test, overall statement across the three normal human cell types; format: cell-based; conditions: L02, HUVEC and 293T; compared with methotrexate
Protocol: as §1, §2

Row | SMILES | MIC against Streptococcus pneumoniae 180918016-S27 [1] | MIC against Streptococcus pneumoniae 180918017-S28 [1] | IC50 at 72 h [2] | IC50 at 72 h [3] | IC50 at 72 h [4] | IC50 at 72 h ([2]; L02 cells (human normal hepatocytes), L02 cells, MTT, 72 hours, read-out: Cytotoxicity IC50 L02) | IC50 at 72 h ([3]; HUVEC (human umbilical vein endothelial cells), HUVEC cells, MTT, 72 hours, read-out: Cytotoxicity IC50 HUVEC) | IC50 at 72 h ([4]; 293T cells (human renal epithelial cells), 293T cells, MTT, 72 hours, read-out: Cytotoxicity IC50 293T) | MIC against Enterococcus (Enterococcus) | MIC against Streptococcus pneumoniae (Streptococcus pneumoniae) | Toxicity to normal human cells (in words) [5]
1 | CC(=O)N(O)CCCC[C@H](NC(=O)[C@H](CCCCN(O)C(C)=O)NC(=O)[C@@H](N)CCCCN(O)C(C)=O)C(=O)NCCOCCOCCNC(=O)CC[C@H](NC(=O)c1ccc(N(C)Cc2cnc3nc(N)nc(N)c3n2)cc1)C(=O)O [3-4v] | <0.0078 | <0.0078 | – | – | – | – | – | – | – | – | –
2 | CC(=O)N(O)CCC[C@H](NC(=O)[C@H](CCCN(O)C(C)=O)NC(=O)[C@@H](N)CCCN(O)C(C)=O)C(=O)N[C@@H](CO)C(=O)NCCNC(=O)CC[C@@H](NC(=O)c1ccc(N(C)Cc2cnc3nc(N)nc(N)c3n2)cc1)C(=O)O [3-4f] (H-[Orn(N5-OH,N5-Ac)][Orn(N5-OH,N5-Ac)][Orn(N5-OH,N5-Ac)]S-{Ethylenediamine-d(γGlu)-DAMPA}) | <0.0078 | <0.0078 | 14.7 ± 1.7 µM | 19.2 ± 0.54 µM | 3.93 ± 0.03 µM | – | – | – | – | – | –
3 | CC(=O)N(O)CCC[C@H](NC(=O)[C@H](CCCN(O)C(C)=O)NC(=O)[C@@H](N)CCCN(O)C(C)=O)C(=O)NCCOCCOCCNC(=O)CC[C@@H](NC(=O)c1ccc(N(C)Cc2cnc3nc(N)nc(N)c3n2)cc1)C(=O)O [3-4c] | <0.0078 | <0.0078 | 5.46 ± 2.18 µM | 4.52 ± 0.21 µM | 2.66 ± 0.01 µM | – | – | – | – | – | –
4 | CCC(=O)N(O)CCCC[C@H](NC(=O)[C@H](CCCCN(O)C(=O)CC)NC(=O)[C@@H](N)CCCCN(O)C(=O)CC)C(=O)NCCOCCOCCNC(=O)CC[C@H](NC(=O)c1ccc(N(C)Cc2cnc3nc(N)nc(N)c3n2)cc1)C(=O)O [3-4x] | <0.0078 | <0.0078 | – | – | – | – | – | – | – | – | –
5 | CN(Cc1cnc2nc(N)nc(N)c2n1)c1ccc(C(=O)N[C@@H](CCC(=O)O)C(=O)O)cc1 [Methotrexate, reference compound] | 0.125 | 0.03125 | – | – | – | 0.01 µM | < 0.0781 µM | 0.01 µM | 4 µM (≈ 1.82 µg/mL) | 0.5 µM (≈ 0.227 µg/mL) | –
6 | CC(=O)N(O)CCC[C@H](NC(=O)[C@H](CCCN(O)C(C)=O)NC(=O)[C@@H](N)CCCN(O)C(C)=O)C(=O)NCCCCCNC(=O)CC[C@@H](NC(=O)c1ccc(N(C)Cc2cnc3nc(N)nc(N)c3n2)cc1)C(=O)O [3-4b] | 0.0625 | <0.0078 | 34.6 ± 14.5 µM | 31 ± 3.18 µM | 8.82 ± 0.08 µM | – | – | – | – | – | least toxicity
7 | CC(=O)N(O)CCC[C@H](NC(=O)[C@H](CCCN(O)C(C)=O)NC(=O)[C@@H](N)CCCN(O)C(C)=O)C(=O)NCCNC(=O)[C@H](CCCCN)NC(=O)CC[C@@H](NC(=O)c1ccc(N(C)Cc2cnc3nc(N)nc(N)c3n2)cc1)C(=O)O [3-4h] | – | – | 34.5 ± 4.01 µM | 16.6 ± 2 µM | 10.6 ± 1.34 µM | – | – | – | – | – | least toxicity
8 | CC(=O)N(O)CCC[C@H](NC(=O)[C@H](CCCN(O)C(C)=O)NC(=O)[C@@H](N)CCCN(O)C(C)=O)C(=O)NCCNC(=O)[C@H](CO)NC(=O)[C@H](CO)NC(=O)CC[C@@H](NC(=O)c1ccc(N(C)Cc2cnc3nc(N)nc(N)c3n2)cc1)C(=O)O [3-4g] | <0.0078 | <0.0078 | 27 ± 2.88 µM | 18.4 ± 1.82 µM | 5.38 ± 0.65 µM | – | – | – | – | – | least toxicity
9 | CN[C@H](CC(C)C)C(=O)N[C@H]1C(=O)N[C@@H](CC(N)=O)C(=O)N[C@H]2C(=O)N[C@H]3C(=O)N[C@H](C(=O)N[C@H](C(=O)O)c4cc(O)cc(O)c4-c4cc3ccc4O)[C@H](O)c3ccc(c(Cl)c3)Oc3cc2cc(c3O[C@@H]2O[C@H](CO)[C@@H](O)[C@H](O)[C@H]2O[C@H]2C[C@](C)(N)[C@H](O)[C@H](C)O2)Oc2ccc(cc2Cl)[C@H]1O [Vancomycin, reference compound] | 0.25 | 0.125 | – | – | – | – | – | – | – | – | –
